Tests used:
Format in all cases: functional
Rattus norvegicus [1] = experiment: Compound was evaluated for male antifertility activity by oral administration in propylene glycol to male Sprague-Dawley rats for 14 consecutive days at dose of 0.40 mmol/kg
Rattus norvegicus [2] = experiment: Compound was evaluated for male antifertility activity by oral administration in propylene glycol to male Sprague-Dawley rats for 14 consecutive days at dose of 0.36 mmol/kg
Rattus norvegicus [3] = experiment: Compound was evaluated for male antifertility activity by oral administration in propylene glycol to male Sprague-Dawley rats for 14 consecutive days at dose of 0.43 mmol/kg
Rattus norvegicus [4] = experiment: Compound was evaluated for male antifertility activity by oral administration in propylene glycol to male Sprague-Dawley rats for 14 consecutive days at dose of 0.64 mmol/kg
Rattus norvegicus [5] = experiment: Compound was evaluated for male antifertility activity by oral administration in propylene glycol to male Sprague-Dawley rats for 14 consecutive days at dose of 0.30 mmol/kg
Rattus norvegicus [6] = experiment: Compound was evaluated for male antifertility activity by oral administration in propylene glycol to male Sprague-Dawley rats for 14 consecutive days at dose of 0.18 mmol/kg
Rattus norvegicus [7] = experiment: Compound was evaluated for male antifertility activity by oral administration in propylene glycol to male Sprague-Dawley rats for 14 consecutive days at dose of 0.68 mmol/kg
Rattus norvegicus [8] = experiment: Compound was evaluated for male antifertility activity by oral administration in propylene glycol to male Sprague-Dawley rats for 14 consecutive days at dose of 0.04 mmol/kg
Rattus norvegicus [9] = experiment: Compound was evaluated for male antifertility activity by oral administration in propylene glycol to male Sprague-Dawley rats for 14 consecutive days at dose of 0.34 mmol/kg
Rattus norvegicus [10] = experiment: Compound was evaluated for male antifertility activity by oral administration in propylene glycol to male Sprague-Dawley rats for 14 consecutive days at dose of 0.05 mmol/kg
Rattus norvegicus [11] = experiment: Compound was evaluated for male antifertility activity by oral administration in propylene glycol to male Sprague-Dawley rats for 14 consecutive days at dose of 0.07 mmol/kg
Rattus norvegicus [12] = experiment: Compound was evaluated for male antifertility activity by oral administration in propylene glycol to male Sprague-Dawley rats for 14 consecutive days at dose of 0.09 mmol/kg

## CC(OS(N)(=O)=O)C(C)OS(N)(=O)=O (stereo not drawn)
Rattus norvegicus [1]
  No. of implants/pregnancy: 15
  No. of males cohabited: 4
  No. of males fertile: 3
  No. of males mated: 3
  Resorbing implants: 0%

## NS(=O)(=O)OC1CCCCC1OS(N)(=O)=O (stereo not drawn)
Rattus norvegicus [2]
  No. of implants/pregnancy: 14
  No. of males cohabited: 5
  No. of males fertile: 5
  No. of males mated: 5
  Resorbing implants: 4.4%

## NS(=O)(=O)OCCCOS(N)(=O)=O
Rattus norvegicus [3]
  No. of implants/pregnancy: 9.3
  No. of males cohabited: 5
  No. of males fertile: 4
  No. of males mated: 5
  Resorbing implants: 73.6%
Rattus norvegicus [4]
  No. of implants/pregnancy: 6.7
  No. of males cohabited: 5
  No. of males mated: 5
  Resorbing implants: 94.4%

## NS(=O)(=O)OCCCCCCCCCCOS(N)(=O)=O
Rattus norvegicus [5]
  No. of implants/pregnancy: 12.5
  No. of males cohabited: 5
  No. of males fertile: 4
  No. of males mated: 5
  Resorbing implants: 17.3%

## NS(=O)(=O)OCCOS(N)(=O)=O
Rattus norvegicus [6]
  No. of implants/pregnancy: 10.8
  No. of males cohabited: 10
  No. of males fertile: 8
  No. of males mated: 9
  Resorbing implants: 40%
Rattus norvegicus [2]
  No. of implants/pregnancy: 9.8
  No. of males cohabited: 8
  No. of males fertile: 1
  No. of males mated: 7
  Resorbing implants: 98.2%
Rattus norvegicus [7]
  No. of males cohabited: 5
  No. of males fertile: 0
  No. of males mated: 5

## NS(=O)(=O)OCCCCOS(N)(=O)=O
Rattus norvegicus [8]
  No. of implants/pregnancy: 10.2
  No. of males cohabited: 5
  No. of males fertile: 5
  No. of males mated: 5
  Resorbing implants: 56%
Rattus norvegicus [1]
  No. of males cohabited: 5
  No. of males fertile: 0
  No. of males mated: 5

## CCCC(C)(COS(N)(=O)=O)COS(N)(=O)=O
Rattus norvegicus [9]
  No. of implants/pregnancy: 15.5
  No. of males cohabited: 4
  No. of males fertile: 4
  No. of males mated: 4
  Resorbing implants: 12.5%

## CS(=O)(=O)OCCOS(C)(=O)=O [ETHANE DIMETHANE SULFONATE]
Rattus norvegicus [10]
  No. of implants/pregnancy: 9.9
  No. of males cohabited: 7
  No. of males fertile: 6
  No. of males mated: 7
  Resorbing implants: 35.2%
Rattus norvegicus [11]
  No. of implants/pregnancy: 12.3
  No. of males cohabited: 5
  No. of males fertile: 3
  No. of males mated: 4
  Resorbing implants: 30.3%
Rattus norvegicus [12]
  No. of males cohabited: 5
  No. of males fertile: 0
  No. of males mated: 4
